Experimental findings from patent US11045485B2, “Glycomimetic inhibitors of PA-IL and PA-IIL lectins” (GlycoMimetics, Inc., priority 2016, dated 2021) are described below.

Series [1] deals with Pseudomonas aeruginosa PAO1 strain. The series can be described thus: Acute P. aeruginosa-induced infection in mouse, monotherapy at different inoculation times. Format: in vivo, male C57BL6/J mice. Here is the method:
(§1) Pseudomonas aeruginosa PAO1 strain is a sequenced, well-characterized strain used as reference strain. Bacteria were grown overnight at 37° C. in Lysogeny Broth Lennox (LB) (BD Europe, Le pont de Claix, France) under orbital shaking (300 rpm) from frozen stock. A secondary culture was performed during 2 hours and before harvesting the bacteria by centrifugation (2000 g, 5 min), and two washings with sterile phosphate-buffered saline (PBS). Turbidity was then approximated by measurement of optical density at A600 (Ultrospec 10 Cell Density Meter, General Electric, Fairfield, Conn.) and verified by serial dilution and plating on LB agar Plates.
(§2) Vehicle was phosphate buffered saline, and test solutions are Glycomimetic Compound (I) 40 mM in PBS, and Compound A 40 mM in PBS. Test articles were provided by GlycoMimetics and stored at −20° C. Tobramycin (1 g) was provided by Laboratoire EREMPHARMA (25 rue Greffulhe—92300 Levallois) and stored at (+4° C.).
(§3) Male C57BL6/J mice (8 weeks old) purchased from Janvier Labs (Route du Genest, 53940 Le Genest-Saint-Isle) were housed a pathogen-free unit of the Lille University Animal Care Facility and allowed food and water ad lib.
(§4) Mice were anesthetized briefly with inhaled sevoflurane (Sevorane™, Abbott, Queensborough, UK), allowing maintenance of spontaneous breathing after which 50 μL of the bacterial solution were administered intranasally representing a total of 1.10^6 CFU/mouse (except for tobramycin study conducted with lethal inoculate of […]). Control mice receive 50 μL of PBS. All mice were sacrificed at 24 h (except for survival studies, mice were monitored on weight and clinical score 96 h post bacterial infection). Glycomimetic Compound (I) or Compound A were administered IN with the inoculum or post-infection (see FIG. 8 and FIG. 12). In appropriate groups, mice were treated 24 h after infection with 12 mg/kg tobramycin administered intraperitoneally.
(§5) For each group, treatment effect was measured with the disease score and daily mortality rate post challenge. The evolution of the disease score assessing the clinical appearance of the animals was evaluated on 4 items scored from 0 to 10 summarized in Table 1 (body temperature, appearance of the bristle, behavior and weight loss; 0: healthy mice, 10 moribund mice). All disease score assessments were performed by two experimenters throughout the study.
(§6) Statistical analysis was performed using Prism 5 software (Graph-Pad Software, San Diego Calif.). Values are expressed as mean±SEM. Comparison groups were analysed with the nonparametric Mann-Whitney test. Survival curves were analysed using Log-rank (Mantel-Cox) test. *p<0.05; ** p<0.01; *** p<0.001 Results are mean+/−Standard error.
Mice, 8 weeks old C57Bl/6J male, received intranasally 1.10^7 CFU of PaO1 and Glycomimetic Compound (I) or Compound A at different time points, as described in FIG. 8.
We analyzed weight loss, clinical disease score and mortality. Fourteen independent cohorts of 5 mice each were tested. Each cohort included an equal representation of testing conditions. All stage 1 cohorts were tested over 4 days. At the conclusion of Stage 1, there was a total of 10 mice for each of the above 7 treatment groups.

The subject of series [2] is Pseudomonas aeruginosa strain PaO. Put plainly: Acute lung injury model, compound co-administered with bacteria. The series is classed as in vivo, male BalB/c mice. The protocol: Cohorts of male BalB/c mice (n=5/group) were infected intranasally with either a low (1-2×10^6 CFU) or a high (1-2×10^7 CFU) inoculum of Pseudomonas aeruginosa strain PaO, in combination with saline or multiple dose levels ([…], corresponding to 10, 25 and 50 mg/kg, respectively) of glycomimetic compound (I) or compound A. The bacteria were coadministered with glycomimetic compound (I) or compound A directly into the lungs of each mouse by intratracheal (i.t.) injection via the oropharynx using a 24-gauge feeding needle (total volume of 0.05 mL).
The animals were observed daily beginning 24 hours post infection and cumulative clinical (disease) scores were determined for each mouse (FIGS. 4 and 6). Parameters assessed were: (a) for appearance (smooth→bristly); (b) body temperature (normal→cold); (c) movement (moving→prostate); and (d) weight loss. Clinical scoring ranged from 0 (normal, uninfected appearance) to 10 (severely compromised).
Animals were observed daily for morbidity/mortality and day of death recorded. Kaplan-Meier analysis was used to estimate survival function from life-span data and statistical values derived from a log rank test.

In series [3] the test system is Pseudomonas aeruginosa. Put plainly: Acute lung injury model, treatment with tobramycin. The series is classed as in vivo, mice. Here is the method:
Mice were co-administered 2×10^7 CFU Pseudomonas aeruginosa with or without compound A or glycomimetic compound (I) in combination with 12 mg/kg tobramycin. The tobramycin was administered intraperitoneally 6 hours after bacterial challenge.

Series [4] is described as follows: Uninfected mice treated with compound (non-specific toxicity control). Format: in vivo. Particulars: 40 mM.
The target of series [5] is T1, PA-IIL (Pseudomonas aeruginosa, UniProt Q9HYN5).
T1 construct: Dr. Wimmerova, Masaryk University, Brno, Czech Republic (academic supplier)
T1 sequence (Q9HYN5 entry or part of it): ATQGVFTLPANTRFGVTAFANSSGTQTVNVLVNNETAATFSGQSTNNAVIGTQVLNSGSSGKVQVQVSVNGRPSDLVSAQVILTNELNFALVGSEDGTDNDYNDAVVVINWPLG
Put plainly: Assay for PA-IIL antagonist activity (competition with fucose-PAA-biotin/streptavidin-HRP on coated plate). The series is classed as binding. The protocol: (§7) Wells of a microtiter plate (plate 1) are coated with PA-IIL (Dr. Wimmerova, Masaryk University, Brno, Czech Republic) by incubation for 2 hrs at 37° C. The wells are then blocked for 2 hrs by the addition of 1% bovine serum albumin (BSA) diluted in TBS-Ca (50 mM TrisHCl, 150 mM NaCl, 2 mM CaCl2 pH 7.4) mixed 1:1 v/v with Stabilcoat (Surmodics, Eden Prairie, Minn.). In a second low-binding round-bottom microtiter plate (plate 2), test antagonists are serial diluted in 1% BSA in TBS-Ca/Stabilcoat (60 μl/well). Preformed conjugates of fucose-PAA-biotin (GlycoTech Corp, Gaithersburg, Md.) mixed with streptavidin-HRP (KPL Labs, Gaithersburg, Md.) are added to each well of plate 2 (60 μl/well of 2 μg/ml). Plate 1 is then washed with TBS-Ca and 100 μl/well are transferred from plate 2 to plate 1. After incubation at room temperature for 2 hrs, plate 1 is washed and 100 μl of TMB reagent (KPL Labs, Gaithersburg, Md.) is added to each well. After incubation for 5 minutes at room temperature, the reaction is stopped by adding 100 μl/well of 1M H3PO4 and the absorbance of light at 450 nm is determined by a microtiter plate reader. Absorbance is plotted as a function of antagonist concentration and the concentration at which 50% maximal absorbance (IC50) is obtained is determined from the plot.

Series [6] concerns the target T2, PA-IL (Pseudomonas aeruginosa, UniProt Q05097).
T2 construct: purchased Sigma-Aldrich, St. Louis, Mo
The series can be described thus: Assay for PA-IL antagonist activity (competition with α-galactose-PAA-biotin/streptavidin-HRP on coated plate). The series is classed as binding. Here is the method: as §7, with “PA-IL (Sigma-Aldrich, St. Louis, Mo.)” for “PA-IIL (Dr. Wimmerova, Masaryk University, Brno, Czech Republic)”, “CaCl2)” for “CaCl2”, “α-galactose-PAA-biotin” for “fucose-PAA-biotin”

The test system of series [7] is Pseudomonas aeruginosa PAO1 strain. Put plainly: Acute P. aeruginosa-induced infection in mouse, association with tobramycin. The series is classed as in vivo, male C57BL6/J mice. Here is the method: as §1, §2, §3, §4, §5, §6
Mice, 8 weeks old C57Bl/6J male, received intranasally 2.10^7 CFU of PAO1 and Glycomimetic Compound (I) or Compound A at different time points with or without an intraperitoneal injection of tobramycin 12 mg/kg (FIG. 12).

[8] abbreviates: 2.10^7 CFU PAO1, agent alone, H4 administration.

Where “and” joins values, the source holds several entries; their conditions need not be identical. Identical values can stand only once.

T2 sequence (Q05097 whole entry): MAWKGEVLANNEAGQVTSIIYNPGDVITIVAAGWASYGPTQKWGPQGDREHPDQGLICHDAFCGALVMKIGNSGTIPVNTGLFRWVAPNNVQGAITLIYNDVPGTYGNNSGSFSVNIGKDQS

What is called IC50 is the concentration at which inhibition is half-maximal. Higher therefore signals weaker potency in that assay. `CC1CCC[C@@H](O[C@@H]2OC(CO)[C@H](O)C(O[C@H]3OC(CO)[C@H](O)C(O)C3O)C2O)C1OC1O[C@@H](C)C(O)C(O)[C@@H]1O` (stereo partly drawn) [Glycomimetic Compound (I)]: the survival in series [1] (1.10^7 CFU PaO1, compound administered after 4 hours of infection) was 40%; in series [1] (1.10^7 CFU PaO1, compound administered after 6 hours of infection), 25% and 20%; in series [1] (1.10^7 CFU PaO1, compound administered after one hour of infection) it was 54.5%; in series [1] (1.10^7 CFU PaO1, compound administered with the bacteria) it was 90%; in series [2] (high inoculum, co-administered 20 mM, at 96 hr), 60%; in series [2] (high inoculum, co-administered 40 mM, at 96 hr) it was 100%. Also, the survival in series [2] (low inoculum 2×10^6 CFU, co-administered 40 mM compound, i.t.) was found to be 100%; in series [3] (8 mM in combination with 12 mg/kg tobramycin), 40%; in series [3] (20 mM in combination with 12 mg/kg tobramycin) it was 100%; in series [3] (40 mM in combination with 12 mg/kg tobramycin), 100%; in series [7] (setting [8]), 30%; in series [7] (2.10^7 CFU PAO1, association with tobramycin 12 mg/kg i.p., H4 administration) it was 90%. In series [7] (2.10^7 CFU PAO1, association with tobramycin 12 mg/kg i.p., at 6 h), this compound displayed a survival of 50%. Moreover, in series [1] (monotherapy, FIGS. 10 and 11), the “effect on weight and score disease” value was “superior to Compound A”. Also, the survival benefit result in series [3] (8, 20 and 40 mM co-administered with bacteria, plus 12 mg/kg tobramycin i.p. 6 hours after challenge) is “significantly increased”. Moreover, the morbidity or mortality entry in series [4] is “no morbidity or mortality was observed”. In addition, the figures for the half-inhibitory concentration (IC50) in series [5] and in series [6] were 0.44 µM and 7.2 µM, respectively. For the same compound, in series [7] (with tobramycin, at 4 hours), the score disease result is listed as “lower score”.

Regarding `NC[C@H]1O[C@H](O[C@H]2[C@H](O)[C@@H](O[C@H]3O[C@H](CO)[C@@H](O)[C@H](N)[C@H]3O)[C@H](N)C[C@@H]2N)[C@H](N)C[C@@H]1O` [tobramycin, reference compound], the survival in series [7] (setting [8]) stood at 70%; in series [7] (2.10^7 CFU PAO1, agent alone, at 6 h) it was 10%.
